From patent publication US20230406803A1, “TROPOLONE DERIVATIVES AND TAUTOMERS THEREOF FOR IRON REGULATION IN ANIMALS” (Kinesid Therapeutics, Inc, priority 2020, published 2023)

How the values were obtained:
[1] = Mouse 6-hour PK study; details: mouse, in vivo
Description: Useful such assays include, but are not limited to e.g., those measurements made in PK studies, such as rodent and non-human primate PK studies, including e.g., mouse (such as mouse 6-hour PK studies), rat PK studies, cynomolgus or rhesus PK studies, or the like. Useful measurements obtained in such PK studies include but are not limited to e.g., maximum concentration (Cmax) reflecting the “peak” of a drug observed after its administration that can reflect not only the rate but also the extent of absorption, area under the curve (AUC) representing the area under the plot of tissue (e.g., plasma) concentration against time after drug administration which is of particular use in estimating bioavailability of drugs and drug total clearance, half-life (t1/2) or the period of time required for the concentration or amount of drug to be reduced to exactly one-half of a given concentration or amount that indicates the persistence of the drug in its volume of distribution, and the like.
Such assessments included human and mouse liver microsomal stability assays as well as 6-hour mouse PK studies.

[2] = Ligand facilitated Fe(III) efflux from liposomes; type: biochemical; set-up: unit not given here; details: efflux rate k at 10 μM ligand concentration; ferrozine absorbance 562 nm, 120 min kinetic read
Protocol: Assay 1: Ligand Facilitated Fe(III) Efflux from Liposomes
Preparation of POPC (1 palmitoyl-2-oleoyl-sn-glycero-3 phosphocholine): Cholesterol Liposomes
A 1M buffer solution of MES and Tris was prepared by dissolving 121.14 grams of Tris base and 213.25 grams of MES hydrate in 500 mL of MilliQ water and adjusted to pH7.0 using an […] HCl solution before bringing the total volume of the solution to 1 L. A 500 mM solution of FeCl3 was prepared by dissolving 0.811 grams of anhydrous FeCl3 in 10 mL of a 0.1M H2SO4 aqueous solution. Inside buffer is prepared in a 50 mL falcon tube, which was added with 25 mL of MilliQ water, 1.61 g of sodium citrate, 1.5 mL of the above FeCl3 solution, and 2.5 mL of the 1M MES/Tris HCl buffer (pH=7.0), and finally additional MilliQ H2O to bring to a 50 mL final volume.
Lipid solution is prepared by dissolving 206.9 mg of POPC (1-palmitoyl-2-oleoyl-sn-glycero-3-phosphocholine) and 8.6 mg of cholesterol in 10 mL of ethanol.
The lipids solution and the inside buffer solution are independently loaded into 10 mL luer lock syringes for loading into a virgin cartridge on a Precision Nanosystems NanoAssembler to prepare unilamaller liposomes with the following parameters: 7.5 mL total volume, 1.5:1 mixing ratio of inside buffer:lipids solution, 8 mL/min flow rate, ambient temperature, 0.35 mL start waste, and 0.05 mL of end waste. 7.5 mL of liposomes is harvested for purification on a 6-inch long, 1-inch diameter Sephadex G-50 column wetted in 600 mM sodium ascorbate and 50 mM MES/Tris HCl pH 7.0 buffer. This buffer also serves as the column running buffer. The crude liposome solution is carefully loaded with minimal volume of running buffer above the top of the Sphadex, allowed to enter the matrix, and the column is run with the continued addition of running buffer. The eluting liposomes, observed as a milky and turbid solution, are collected until free iron begins to elute (observed as a deep purple color) and the fractions are pooled for phosphorus quantitation.
Determination of Phosphorus Content:
Phosphorus content of eluted liposomes was determined by the process outlined below. 10 μL of liposome elution and a running buffer blank are added to a 5 mL glass vial containing 450 μL of a 8.9 M aqueous H2SO4 solution, the mixture is heated to 225° C. for 25 minutes in an aluminum heat block to hydrolyze POPC and cooled for 5 minutes. 200 μL of a 30% hydrogen peroxide aqueous solution is added to each vial and heated to 225° C. for 25 minutes. After cooling, the phosphorus content was determined using an Abcam Phosphate Assay kit, with buffer subtracted phosphorus levels determined against a standard curve of phosphate included in the kit. Liposomes were diluted to 1 mM phosphate in Running Buffer for use in assays after accounting for dilutions made during phospholipid digestion.
Determination of the Iron Transporting Rate Constant of the Ligands:
Determination of the rate at which a small molecule ligand liberates (transport) Ferric iron from liposomes is performed in clear bottom black 384-well plates on a Spectramax i3x set to read the absorbance at 562 nm in the kinetic mode every 60 seconds for 120 minutes. 1 μL of serially diluted DMSO stock solution of a small molecule ligand is added to wells in triplicate to give the final concentrations of 40, 20, 10, 5, 2.5, and 1.25 uM of the ligand at 80 μL final volume, followed by addition of 1 μL of 100 mM Ferrozine in water to give a final concentration of 1 mM ferrozine. 78 μL of liposomes diluted to 1 mM phosphorus in running buffer is added to wells as quickly as possible (using a digital repeater multichannel pipette) with the kinetic read initiated as rapidly as possible after addition of liposomes to all wells. Typically, eight compounds at six concentrations are tested in triplicate simultaneously. […]

SMILES	Liposome Fe transport kefflux at 10 μM [2]	other results
O=c1ccccc(C2CCOCC2)c1O [Ex. 8, 2-hydroxy-3-(tetrahydro-211-pyran-4-yl)cyclohepta-2,4,6-trien-1-one]	–	AUC(0-t) [1]: 500 to 1500 ng·h/mL; Cmax [1]: 500 to 1500 ng/mL; half-life [1]: 1.25 to 4.99 h; mouse 6-hour PK properties as compared to hinokitiol [1]: one or more improved mouse 6-hour PK properties as compared to hinokitiol
Cc1cc(F)ccc(=O)c1O	5-7.5	–
O=c1ccc(F)cc(OC2CCC2)c1O	0.1-5	–
O=c1c(F)cccc(OC2CC3(CC3)C2)c1O	0.1-5	–
O=c1ccccc(OC2CCCC2)c1O	7.5-10	–
O=c1ccccc(OCC2CC2)c1O [Ex. 83, 3-(cyclopropylmethoxy)-2-hydroxycyclohepta-2,4,6-trien-1-one]	–	AUC(0-t) [1]: 500 to 1500 ng·h/mL; Cmax [1]: 1500 to 5000 ng/mL; half-life [1]: < 1.25 h; mouse 6-hour PK properties as compared to hinokitiol [1]: one or more improved mouse 6-hour PK properties as compared to hinokitiol
O=c1cccc(C2CCC3(CC2)CC3)cc1O	0.1-5	–
Cc1cccc(C2CCCO2)c(O)c1=O (centres unmarked)	10-25	–
O=c1c(O)ccc(C2CC2)cc1F	10-25	–
CC(C)c1ccc(F)cc(O)c1=O	0.1-5	–
O=c1cccc(O[C@H]2CCOC2)cc1O (stereo in doubt)	5-7.5	–
Cc1cccc(C(C)C)c(O)c1=O [Ex. 30, 2-hydroxy-3-isopropyl-7-methylcyclohepta-2,4,6-trien-1-one]	–	AUC(0-t) [1]: < 499 ng·h/mL; Cmax [1]: < 499 ng/mL; half-life [1]: 5 to 9.99 h; mouse 6-hour PK properties as compared to hinokitiol [1]: one or more improved mouse 6-hour PK properties as compared to hinokitiol
CCc1ccc(F)c(=O)c(O)c1	0.1-5	–
C[C@H](Oc1ccccc(=O)c1O)C1CC1 (stereo in doubt)	5-7.5	–
CC1CCC(c2ccccc(=O)c2O)O1 (racemic)	5-7.5	–
COc1ccc(O)c(=O)cc1	5-7.5	–
O=c1ccc(F)cc(C2CCOCC2)c1O	7.5-10	–
Cc1coc2c(O)c(=O)cccc12	7.5-10	–
O=c1ccccc(OC2CC3(CC3)C2)c1O [Ex. 82, 2-hydroxy-3-(spiro[2.3]hexan-5-yloxy)cyclohepta-2,4,6-trien-1-one]	–	AUC(0-t) [1]: 500 to 1500 ng·h/mL; Cmax [1]: < 499 ng/mL; half-life [1]: < 1.25 h; mouse 6-hour PK properties as compared to hinokitiol [1]: one or more improved mouse 6-hour PK properties as compared to hinokitiol
O=c1ccc(F)ccc1O	7.5-10	–
O=c1c(O)ccc(OC2CCCC2)cc1F	5-7.5	–
O=c1cccc(C2CC3CC3C2)cc1O (centres unmarked)	0.1-5	–
C[C@@H](Oc1ccccc(=O)c1O)C1CC1 (stereo in doubt)	5-7.5	–
O=c1ccc(C(CO)Cc2ccccc2)ccc1O (centres unmarked)	0.1-5	–
O=c1c(O)cc(C2CC2)ccc1F [Ex. 34, 4-cyclopropyl-7-fluoro-2-hydroxycyclohepta-2,4,6-trien-1-one]	–	AUC(0-t) [1]: > 20000 ng·h/mL; Cmax [1]: 5000 to 20000 ng/mL; half-life [1]: 1.25 to 4.99 h; mouse 6-hour PK properties as compared to hinokitiol [1]: one or more improved mouse 6-hour PK properties as compared to hinokitiol
Cc1cc(Cl)ccc(=O)c1O	5-7.5	–
O=c1c(F)cccc(OC2CCCC2)c1O	7.5-10	–

SMILES	Liposome Fe transport kefflux at 10 μM [2]	other results
CC(C)c1cccc(=O)c(S)c1	0.1-5	–
O=c1ccc(F)cc(C2CCCO2)c1O (centres unmarked)	5-7.5	–
O=c1cccc(OC2CCC2)cc1O	0.1-5	–
O=c1ccc(F)cc(C2CCCCO2)c1O (centres unmarked)	0.1-5	–
Cc1cc(C(C)C)ccc(O)c1=O [Ex. 28, 7-hydroxy-4-isopropyl-2-methylcyclohepta-2,4,6-trien-1-one]	–	AUC(0-t) [1]: < 499 ng·h/mL; Cmax [1]: < 499 ng/mL; half-life [1]: 1.25 to 4.99 h; mouse 6-hour PK properties as compared to hinokitiol [1]: one or more improved mouse 6-hour PK properties as compared to hinokitiol
O=c1ccc(OC2CC3(CC3)C2)ccc1O	0.1-5	–
O=c1ccc(OC2CCCC2)ccc1O	5-7.5	–
CCc1cccc(C)c(=O)c1O [Ex. 27, 7-ethyl-2-hydroxy-3-methylcyclohepta-2,4,6-trien-1-one]	–	AUC(0-t) [1]: 500 to 1500 ng·h/mL; Cmax [1]: 500 to 1500 ng/mL; half-life [1]: 1.25 to 4.99 h; mouse 6-hour PK properties as compared to hinokitiol [1]: one or more improved mouse 6-hour PK properties as compared to hinokitiol
O=c1c(F)cccc(C2CCCCO2)c1O (centres unmarked)	5-7.5	–
C[C@@H]1CCC(c2ccccc(=O)c2O)O1 (mixture of isomers)	5-7.5	–
O=c1c(F)cccc(C2CC2)c1O	7.5-10	–
CC1(c2ccc(O)c(=O)c(F)c2)CC1	5-7.5	–
O=c1ccccc(C2CC3CC3C2)c1[O-].[Na+] (centres unmarked)	0.1-5	–
O=c1cccc2c(c1O)OCCC2	5-7.5	–
COC1CCCC1c1ccccc(=O)c1O (centres unmarked)	5-7.5	–
CC1(C)CCC(c2ccc(O)c(=O)cc2)C1 (centres unmarked)	0.1-5	–
O=c1c(F)cccc(OC2CC2)c1O	0.1-5	–
Cc1cccc(C2CCCCO2)c(O)c1=O (centres unmarked)	<.1	–
O=c1ccccc(OCC2CCC2)c1O	5-7.5	–
CC(C)c1cc(F)ccc(=O)c1O	0.1-5	–
O=c1cccc(OC2CC3(CC3)C2)cc1O	5-7.5	–
CC1(c2ccc(O)c(=O)cc2)CC1	0.1-5	–
CC(C)c1cccc(S)c(=O)c1	0.1-5	–
O=c1c(F)cccc(OC2CCC2)c1O	10-25	–
O=c1cccc(F)cc1O	0.1-5	–
O=c1ccccc(CC2COC2)c1O	<0.1	–
